Experimental data: US10577363B2, “Substituted piperidine compounds” (EPIZYME, INC., priority 2014, dated 2020)

Target: SMYD3 (Homo sapiens (Human), UniProt Q9H7B4)
Experiment: SMYD3 biochemical assay (SPA, 3H-SAM methylation of MEKK2 protein substrate)
Settings: read-out: SMYD3 Biochem IC50 (μM)*
Procedure, shortened: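 Tritium incorporation into GST-MEKK2 is counted by scintillation proximity after citric acid bead capture. Native human SMYD3 is preincubated with test compound for 30 min at room temperature at pH 8.0 (Tris-Cl, TCEP, BSG, Tween 20) before 3H-SAM and substrate are added; cold SAM at 100 uM final stops turnover.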

SMILES | IC50 [µM]
C[C@@H]1C[C@@H](NC(=O)c2cc(C3CC3)on2)CCN1C(=O)c1ccc(C(C)(C)N)cc1 [compound 371, N-((2R,4S)-1-(4-(2-aminopropan-2-yl)benzoyl)-2-methylpiperidin-4-yl)-5-cyclopropylisoxazole-3-carboxamide] | 4.95
C[C@H]1C[C@H](NC(=O)c2cc(C3CC3)on2)CCN1C(=O)C1CCCC(CN)C1 (stereo partly drawn) [compound 372, N-((2S,4R)-1-(3-(aminomethyl)cyclohexane-1-carbonyl)-2-methylpiperidin-4-yl)-5-cyclopropylisoxazole-3-carboxamide] | 5.89
N[C@H]1CC[C@H](C(=O)N2CC[C@@H](NC(=O)c3cc(C4CC4)on3)[C@H](CO)C2)CC1 [compound 382, N-((3R,4R)-1-((1r,4R)-4-aminocyclohexane-1-carbonyl)-3-(hydroxymethyl)piperidin-4-yl)-5-cyclopropylisoxazole-3-carboxamide] | 2.54
O=C(N[C@@H]1CCN(C(=O)CC2CCNCC2)C[C@H]1CO)c1cc(C2CC2)on1 [compound 383, 5-cyclopropyl-N-((3R,4R)-3-(hydroxymethyl)-1-(2-(piperidin-4-yl)acetyl)piperidin-4-yl)isoxazole-3-carboxamide] | 3.02
C[C@@H]1CN(S(=O)(=O)CCCN)CC[C@H]1NC(=O)c1cc(C2CC2)on1 [compound 388, N-((3R,4R)-1-((3-aminopropyl)sulfonyl)-3-methylpiperidin-4-yl)-5-cyclopropylisoxazole-3-carboxamide] | 0.462
C[C@@H]1C[C@@H](NC(=O)c2cc(C3CC3)on2)CCN1C(=O)c1cccc(C(C)(C)N)c1 [compound 392, N-((2R,4S)-1-(3-(2-aminopropan-2-yl)benzoyl)-2-methylpiperidin-4-yl)-5-cyclopropylisoxazole-3-carboxamide] | > 10
O=C(N[C@@H]1CCN(S(=O)(=O)CCN2CCOCC2)[C@@H](Cc2ccccc2)C1)c1cc(C2CC2)on1 [compound 409, N-((2S,4R)-2-benzyl-1-((2-morpholinoethyl)sulfonyl)piperidin-4-yl)-5-cyclopropylisoxazole-3-carboxamide] | > 10
CC(C)CN(C)c1ccc(S(=O)(=O)N2CC[C@@H](NC(=O)c3cc(C4CC4)on3)C[C@@H]2C)cn1 [compound 411, 5-cyclopropyl-N-((2S,4R)-1-((6-(isobutyl(methyl)amino)pyridin-3-yl)sulfonyl)-2-methylpiperidin-4-yl)isoxazole-3-carboxamide] | > 10
O=C(NC1CC2CCC(C1)N2S(=O)(=O)CC1CCNCC1)c1cc(C2CC2)on1 (stereo not drawn) [compound 416, 5-cyclopropyl-N-(8-((piperidin-4-ylmethyl)sulfonyl)-8-azabicyclo[3.2.1]octan-3-yl)isoxazole-3-carboxamide] | 0.164
N[C@H]1CC[C@H](C(=O)N2CC[C@H](NC(=O)c3cc(C4CC4)on3)[C@@H](CO)C2)CC1 [compound 421, N-((3S,4S)-1-((1r,4S)-4-aminocyclohexane-1-carbonyl)-3-(hydroxymethyl)piperidin-4-yl)-5-cyclopropylisoxazole-3-carboxamide] | 2.51
N[C@H]1CC[C@H](C(=O)N2CC[C@H](NC(=O)c3cc(C4CC4)on3)[C@H](CO)C2)CC1 [compound 422, N-((3R,4S)-1-((1r,4R)-4-aminocyclohexane-1-carbonyl)-3-(hydroxymethyl)piperidin-4-yl)-5-cyclopropylisoxazole-3-carboxamide] | 1.94
C[C@@H]1C[C@@H](NC(=O)c2cc(C3CC3)on2)CCN1C(=O)c1ccc2[nH]cnc2c1 [compound 425, N-((2R,4S)-1-(1H-benzo[d]imidazole-5-carbonyl)-2-methylpiperidin-4-yl)-5-cyclopropylisoxazole-3-carboxamide] | > 10
C[C@H]1C[C@H](NC(=O)c2cc(C3CC3)on2)CCN1C(=O)c1ccc2[nH]cnc2c1 [compound 426, N-((2S,4R)-1-(1H-benzo[d]imidazole-5-carbonyl)-2-methylpiperidin-4-yl)-5-cyclopropylisoxazole-3-carboxamide] | > 10

The next lines start with the values.

IC50 [µM] | SMILES
> 10 | C[C@@H]1C[C@@H](NC(=O)c2cc(C3CC3)on2)CCN1S(=O)(=O)Cc1cccnc1 [compound 374, 5-cyclopropyl-N-((2R,4S)-2-methyl-1-((pyridin-3-ylmethyl)sulfonyl)piperidin-4-yl)isoxazole-3-carboxamide]
1.83 | O=C(N[C@H]1CCN(C(=O)CC2CCNCC2)[C@H](Cc2ccccc2)C1)c1cc(C2CC2)on1 [compound 375, N-((2R,4S)-2-benzyl-1-(2-(piperidin-4-yl)acetyl)piperidin-4-yl)-5-cyclopropylisoxazole-3-carboxamide]
1.32 | O=C(N[C@@H]1CCN(C(=O)CC2CCNCC2)[C@@H](Cc2ccccc2)C1)c1cc(C2CC2)on1 [compound 376, N-((2S,4R)-2-benzyl-1-(2-(piperidin-4-yl)acetyl)piperidin-4-yl)-5-cyclopropylisoxazole-3-carboxamide]
3.35 | C[C@H]1C[C@H](NC(=O)c2cc(C3CC3)on2)CCN1S(=O)(=O)c1ccccc1 [compound 379, 5-cyclopropyl-N-((2S,4R)-2-methyl-1-(phenylsulfonyl)piperidin-4-yl)isoxazole-3-carboxamide]
0.323 | C[C@H]1C[C@H](NC(=O)c2cc(C3CC3)on2)CCN1S(=O)(=O)c1cccc(C#N)c1 [compound 380, N-((2S,4R)-1-((3-cyanophenyl)sulfonyl)-2-methylpiperidin-4-yl)-5-cyclopropylisoxazole-3-carboxamide]
4.04 | N[C@H]1CC[C@H](C(=O)N2CC[C@@H](NC(=O)c3cc(C4CC4)on3)C[C@H]2CO)CC1 [compound 384, N-((2S,4R)-1-((1r,4S)-4-aminocyclohexane-1-carbonyl)-2-(hydroxymethyl)piperidin-4-yl)-5-cyclopropylisoxazole-3-carboxamide]
> 10 | N[C@H]1CC[C@H](C(=O)N2CC[C@@H](NC(=O)c3cc(C4CC4)on3)C[C@@H]2Cc2ccccc2)CC1 [compound 389, N-((2S,4R)-1-((1r,4S)-4-aminocyclohexane-1-carbonyl)-2-benzylpiperidin-4-yl)-5-cyclopropylisoxazole-3-carboxamide]
3.16 | COCC(C)S(=O)(=O)N1CC[C@H](NC(=O)c2cc(C3CC3)on2)C[C@@H]1C (stereo partly drawn) [compound 393, 5-cyclopropyl-N-((2S,4S)-1-((1-methoxypropan-2-yl)sulfonyl)-2-methylpiperidin-4-yl)isoxazole-3-carboxamide]
> 10 | CC(C)OCCS(=O)(=O)N1CC[C@@H](NC(=O)c2cc(C3CC3)on2)C[C@@H]1C [compound 394, 5-cyclopropyl-N-((2S,4R)-1-((2-isopropoxyethyl)sulfonyl)-2-methylpiperidin-4-yl)isoxazole-3-carboxamide]
3.41 | O=C(N[C@@H]1CCN(S(=O)(=O)CCN2CCCC2)[C@@H](Cc2ccccc2)C1)c1cc(C2CC2)on1 [compound 406, N-((2S,4R)-2-benzyl-1-((2-(pyrrolidin-1-yl)ethyl)sulfonyl)piperidin-4-yl)-5-cyclopropylisoxazole-3-carboxamide]
1.15 | O=C(N[C@H]1CCN(S(=O)(=O)CCN2CCCC2)[C@H](Cc2ccccc2)C1)c1cc(C2CC2)on1 [compound 408, N-((2R,4S)-2-benzyl-1-((2-(pyrrolidin-1-yl)ethyl)sulfonyl)piperidin-4-yl)-5-cyclopropylisoxazole-3-carboxamide]
